Assay results reported in patent US20090291945A1, “CYSTEINE PROTEASE INHIBITORS” (Teijin Pharma Limited, priority 2008, published 2009).

Target: T1, cathepsin K (Homo sapiens, UniProt P43235)
T1 construct: the active enzyme was obtained as the enzyme fraction by using detergent containing lysis buffer; made in house; host or cells: HEK293T (GenHunter Corporation), transient expression; detergent lysate used as enzyme fraction
T1 sequence (P43235 115-329): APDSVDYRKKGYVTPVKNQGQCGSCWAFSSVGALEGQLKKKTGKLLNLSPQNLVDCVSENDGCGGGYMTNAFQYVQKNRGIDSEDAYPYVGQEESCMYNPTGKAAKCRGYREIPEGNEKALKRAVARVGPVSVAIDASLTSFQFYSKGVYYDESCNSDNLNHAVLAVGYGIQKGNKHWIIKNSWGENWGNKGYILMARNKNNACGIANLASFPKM
Experiment: Cathepsin K inhibitory activity (fluorescent substrate Z-Leu-Arg-MCA)
Format: biochemical
Conditions: enzyme expressed in HEK293T; 15 min preincubation, 30 min reaction at room temperature, pH 5.5; read-out: Activity Intensity (cathepsin K inhibitory activity, pIC50 class) (converted)
Description: Cathepsin K inhibitory activities of the compounds synthesized according to the methods of the above examples were measured.
Cathepsin K used for evaluation of inhibitory activity was transiently expressed in an animal cell HEK293T (made by GenHunter Corporation) and the active enzyme was obtained as the enzyme fraction by using detergent containing lysis buffer.
The enzyme solution A was prepared at 2.1 times final concentration by diluting the enzyme fraction with assay buffer (50 mM sodium acetate, 50 mM sodium chloride, 2 mM DTT, pH 5.5). The test compound solutions B were prepared at 50 times final target concentrations by dimethylsulfoxide (DMSO). As a substrate solution C, a solution of a fluorescent substrate, benzyloxycarbonyl-L-leucyl-L-arginyl-4-methyl-coumaryl-7-amide (Z-Leu-Arg-MCA (Peptide Institute Inc.), was prepared at 10 μM by an assay buffer.
To the enzyme solution A (38.4 μL) were added the test compound solutions B (1.6 μL) and mixed individually. The mixtures were incubated at room temperature for 15 minutes. To the incubated solutions were added the substrate solution C (40 μL) and the mixtures were reacted at room temperature for 30 minutes respectively. The fluorescence intensities of the enzyme reaction solutions were measured at excitation wavelength of 355 nm and measurement wavelength of 460 nm and the enzyme activities were calculated from these fluorescence intensities caused by 7-amino-4-methylcoumarine released. The enzyme activity with using DMSO instead of the test compound solution B was taken as 100% and the inhibitory rates at each concentration of the test compound were calculated. The […] response curve was fitted to the plots. The 50% inhibitory concentration against cathepsin K was calculated from this curve.
Note that the symbols (+, ++, and +++) in this table represent the inhibitory activity values as below. Here, pIC50 is the value representing a negative logarithm of IC50, (−log10(IC50)). IC50 is a 50% inhibitory concentration.

Row | SMILES | IC50 [nM]
1 | COc1ccc(NC[C@H](CO)NC(=O)[C@H](CC(C)(C)F)N[C@@H](c2ccc(-c3ccc(S(C)(=O)=O)cc3)cc2)C(F)(F)F)cc1 [Compound 3, N-((1R)-2-hydroxy-1-{[(4-methoxyphenyl)amino]methyl}ethyl)(2S)-2-[((1S)-2,2,2-trifluoro-1-{4-[4-(methylsulfonyl)phenyl]phenyl}ethyl)amino]-4-fluoro-4-methylpentanamide] | 3.16 to 31.6
2 | CC[C@@H](CNc1ccc(OC)cc1OC)NC(=O)C1(NC(c2ccccc2)C(F)(F)F)CCCCC1 (stereo partly drawn) [Compound 8, N-((1S)-1-{[(2,4-dimethoxyphenyl)amino]methyl}propyl){[(2,2,2-trifluoro-1-phenylethyl)amino]cyclohexyl}carboxamide] | 3.16 to 31.6
3 | CC[C@@H](CNc1ccc(N2CCOCC2)cc1)NC(=O)[C@H](CC(C)(C)F)N[C@@H](c1ccc(-c2ccc(S(C)(=O)=O)cc2)cc1)C(F)(F)F [Compound 9, (2S)—N-((1S)-1-{[(4-morpholin-4-ylphenyl)amino]methyl}propyl)-2-[((1S)-2,2,2-trifluoro-1-{4-[4-(methylsulfonyl)phenyl]phenyl}ethyl)amino]-4-fluoro-4-methylpentanamide] | ≤ 3.16
4 | CC[C@@H](CNc1ccc(N2CCCCC2)cc1)NC(=O)[C@H](CC(C)(C)F)N[C@@H](c1ccc(-c2ccc(S(C)(=O)=O)cc2)cc1)C(F)(F)F [Compound 10, (2S)—N-((1S)-1-{[(4-piperidin-1-ylphenyl)amino]methyl}propyl)-2-[((1S)-2,2,2-trifluoro-1-{4-[4-(methylsulfonyl)phenyl]phenyl}ethyl)amino]-4-fluoro-4-methylpentanamide] | ≤ 3.16
5 | CC[C@@H](CNc1ccc(N2CCOCC2)cc1)NC(=O)C1(NC(c2ccccc2)C(F)(F)F)CCCCC1 (stereo partly drawn) [Compound 11, N-((1S)-1-{[(4-morpholin-1-ylphenyl)amino]methyl}propyl) {[(2,2,2-trifluoro-1-phenylethyl)amino]cyclohexyl}carboxamide] | 3.16 to 31.6
6 | CC[C@@H](CNc1ccc(N(C)C)cc1)NC(=O)[C@H](CC(C)(C)F)N[C@@H](c1ccc(-c2ccc(S(C)(=O)=O)cc2)cc1)C(F)(F)F [Compound 12] | ≤ 3.16
7 | CC[C@@H](CNc1ccc(N(C)C)cc1)NC(=O)C1(NC(c2ccccc2)C(F)(F)F)CCCCC1 (stereo partly shown) [Compound 14] | 31.6 to 10000
8 | CC[C@@H](CNc1ccc(N2CCSCC2)cc1)NC(=O)[C@H](CC(C)(C)F)N[C@@H](c1ccc(Br)cc1)C(F)(F)F [Compound 18] | ≤ 3.16
9 | CC[C@@H](CNc1ccc(OC)cc1OC)NC(=O)[C@H](CC(C)C)N[C@@H](c1ccc(S(C)(=O)=O)cc1)C(F)(F)F [Compound 23] | ≤ 3.16
10 | CC[C@@H](CNc1ccc(N2CCOCC2)cc1)NC(=O)[C@H](CC(C)C)N[C@@H](c1ccc(S(C)(=O)=O)cc1)C(F)(F)F [Compound 24] | ≤ 3.16
11 | CC[C@@H](CNc1ccc(OC)cc1OC)NC(=O)[C@H](CC(C)C)N[C@@H](c1ccc(OC)nc1)C(F)(F)F [Compound 25] | 3.16 to 31.6
12 | CC[C@@H](CNc1ccc(N2CCOCC2)cc1)NC(=O)[C@H](CC(C)C)N[C@@H](c1ccc(OC)nc1)C(F)(F)F [Compound 26] | ≤ 3.16
13 | CC[C@@H](CNc1ccc(N2CCOCC2)cc1)NC(=O)[C@H](CC(C)C)N[C@@H](c1cccnc1)C(F)(F)F [Compound 27] | ≤ 3.16
14 | CC[C@@H](CNc1ccc(OC)cc1OC)NC(=O)C1(N[C@@H](c2ccccc2)C(F)(F)F)CCCC1 [Compound 28] | 31.6 to 10000
15 | CC[C@@H](CNc1ccc(N2CCOCC2)cc1)NC(=O)[C@H](CC(C)C)N[C@@H](c1ccc2c(c1)OCO2)C(F)(F)F [Compound 29] | ≤ 3.16
16 | CC[C@@H](CNc1ccc(N2CCOCC2)cc1)NC(=O)[C@H](CC(C)C)N[C@@H](c1ccc(OCCOC)cc1)C(F)(F)F [Compound 30] | ≤ 3.16

Now from value to compound:

Row | IC50 [nM] | SMILES
17 | 3.16 to 31.6 | CC[C@@H](CNc1ccc(OC)cc1)NC(=O)[C@H](CC(C)(C)F)N[C@@H](c1ccc(-c2ccc(S(C)(=O)=O)cc2)cc1)C(F)(F)F [Compound 1, (2S)—N-((1S)-1-{[(4-methoxyphenyl)amino]methyl}propyl)-2-[((1S)-2,2,2-trifluoro-1-{4-[4-(methylsulfonyl)phenyl]phenyl}ethyl)amino]-4-fluoro-4-methylpentanamide]
18 | 31.6 to 10000 | COc1ccc(NC[C@H](COCc2ccccc2)NC(=O)[C@H](CC(C)(C)F)N[C@@H](c2ccc(-c3ccc(S(C)(=O)=O)cc3)cc2)C(F)(F)F)cc1 [Compound 2, N-{(1R)-2-[(4-methoxyphenyl)amino]-1-[(phenylmethoxy)methyl]ethyl}(2S)-2-[((1S)-2,2,2-trifluoro-1-{4-[4-(methylsulfonyl)phenyl]phenyl}ethyl)amino]-4-fluoro-4-methylpentanamide]
19 | ≤ 3.16 | CCOc1ccc(NC[C@H](CC)NC(=O)[C@H](CC(C)(C)F)N[C@@H](c2ccc(-c3ccc(S(C)(=O)=O)cc3)cc2)C(F)(F)F)cc1OCC [Compound 4, (2S)—N-((1S)-1-{[(3,4-diethoxyphenyl)amino]methyl}propyl)-2-[((1S)-2,2,2-trifluoro-1-{4-[4-(methylsulfonyl)phenyl]phenyl}ethyl)amino]-4-fluoro-4-methylpentanamide]
20 | ≤ 3.16 | CC[C@@H](CNc1ccc(OC)cc1OC)NC(=O)[C@H](CC(C)(C)F)N[C@@H](c1ccc(Br)cc1)C(F)(F)F [Compound 6]
21 | ≤ 3.16 | CC[C@@H](CNc1ccc(N(C)C)cc1)NC(=O)[C@H](CC(C)(C)F)N[C@@H](c1ccc(Br)cc1)C(F)(F)F [Compound 13]
22 | 3.16 to 31.6 | CC[C@@H](CNc1c(OC)cccc1OC)NC(=O)[C@H](CC(C)(C)F)N[C@@H](c1ccc(Br)cc1)C(F)(F)F [Compound 15]
23 | ≤ 3.16 | CC[C@@H](CNc1ccc(OCCSC)cc1OC)NC(=O)[C@H](CC(C)(C)F)N[C@@H](c1ccc(Br)cc1)C(F)(F)F [Compound 16, (2S)-2-{[(1S)-1-(4-bromophenyl)-2,2,2-trifluoroethyl]amino}-N-[(1S)-1-({[2-methoxy-4-(2-methylthioethoxy)phenyl]amino}methyl)propyl]-4-fluoro-4-methylpentanamide]
24 | ≤ 3.16 | CC[C@@H](CNc1ccc(N2CCSCC2)cc1OC)NC(=O)[C@H](CC(C)(C)F)N[C@@H](c1ccc(Br)cc1)C(F)(F)F [Compound 17]
25 | 3.16 to 31.6 | CC[C@@H](CNc1ccc(OC)nc1OC)NC(=O)[C@H](CC(C)(C)F)N[C@@H](c1ccc(Br)cc1)C(F)(F)F [Compound 19]
26 | ≤ 3.16 | CC[C@@H](CNc1ccc(OCC(=O)OCc2ccccc2)cc1OC)NC(=O)[C@H](CC(C)(C)F)N[C@@H](c1ccc(Br)cc1)C(F)(F)F [Compound 20, Phenylmethyl 2-{4-[((2S)-2-{(2S)-2-{[(1S)-2,2,2-trifluoro-1-(4-bromophenyl)ethyl]amino}-4-fluoro-4-methylpentanoylamino}butyl)amino]-3-methoxyphenoxy}acetate]
27 | 3.16 to 31.6 | CC[C@@H](CNc1ccc(OC(C)C(=O)OC)cc1OC)NC(=O)[C@H](CC(C)(C)F)N[C@@H](c1ccccc1)C(F)(F)F (stereo partly drawn) [Compound 21, Methyl 2-{4-[((2S)-2-{(2S)-2-[((1S)-2,2,2-trifluoro-1-phenylethyl)amino]-4-fluoro-4-methylpentanoylamino}butyl)amino]-3-methoxyphenoxy}propanoate]
28 | 3.16 to 31.6 | CC[C@@H](CNc1ccc(OCC(F)(F)C(F)F)cc1OC)NC(=O)[C@H](CC(C)(C)F)N[C@@H](c1ccccc1)C(F)(F)F [Compound 22]
